# Patent publication US8178132B2, “Magnesium-containing food compositions” (Magceutics, Inc., priority 2007, dated 2012)
# How the values were obtained:
# rats [1] = test: Novel object recognition test in rats; assay type: in vivo, Sprague-Dawley rats
# Protocol: In this example, the effect of magnesium supplementation on recognition memory was tested. Three groups of rats were used in these experiments: 1) young rats (three months old); aging rats (12-14 months old), and; 3) magnesium-treated aging rats (12-14 months old, diet supplemented with 6 mg/kg MgCl2 from 8 months of age). We used experimentally naive, female, Sprague-Dawley young […], aging (12-14 month old) and […] rats (Charles River) at the beginning of the behavior experiments. They were housed two per cage with continuous access to food and water under a 12:12 light-dark cycle, with light onset at 8:00 a.m. […] All experiments involving animals were approved by the Massachusetts Institute of Technology's and Tsinghua University Committees on Animal Care.
# The three groups of rats were tested for recognition memory using an object recognition test with a single exposure to the object during training. The task is based on the natural tendency of rodents to explore new objects and tests the animals' memory capacity for distinguishing novel versus familiar objects.
# Briefly, the rats were first individually habituated to the personnel and then to open-field arena during 2 weeks. […] The retention intervals were 10 min and 24 hours. Objects were cleaned thoroughly between trials with 20% ethanol solution to ensure the absence of olfactory cues. The particular objects for a given trial were randomly determined, but each object was used for only one trial per rat. Memory of the familiar object is associated with increased exploration of the new object and an exploration index (% correct) is calculated as new object inspection time/30.
# In this example, the effect of magnesium supplementation on memory consolidation was studied. […]
# Briefly, the rats were first individually habituated to the personnel and then to open-field arena during 2 weeks. […] The particular objects for a given trial were randomly determined, but each object was used for only one trial per rat. […]
# rats [2] = system: rats
# Protocol: Twenty 2-month old, male Sprague Dawley (SD) rats were housed in a temperature-controlled room (22° C. to 25° C.) with a dark period from 08:00 pm to 08:00 am daily. […] Over 7 days before the training and trial period began, each rat was handled and habituated to the maze and to Kellogg's Froot Loop cereal.
# Each rat underwent a test of one trial, followed by an interval of 10-minutes, followed by another trial, and so on, for a total of 6 trials in one day. In each trial, each rat went through a sample run in the maze, followed by an interval of 15 seconds, followed by a choice run in the maze. In the sample run, the subject rat was forced to go to the left or to the right by the presence of a block, according to a pseudorandom sequence (with an equal number of left turns and right turns, and no more than two consecutive turns in the same direction). As a reward, Froot Loop cereal was available in the food well at the end of the run, regardless of the direction that was taken by virtue of the block. In the choice run, the block that had been present in the preceding sample run was removed, and the rat was allowed to choose to go to the left or to the right. As a reward, Froot Loop cereal was available in the food well at the end of the run, only when the rat had made a “correct choice” by choosing the direction opposite that taken in the preceding sample run. […]
# On the first day (designated day 0) of the feeding of the two groups, as just described, each rat underwent a preliminary test of one trial, followed by an interval of 10 minutes, followed by another trial, and so on, for a total of 4 trials in one day. […] In this preliminary test, the choice accuracy level, or ratio of correct choices made, co, to the number of number of trials in the test, no, was determined for each rat. […]
# Three groups of animals (young, aging, and magnesium-treated aging rats) were used. […] Spatial working memory was assessed using a T-maze non-matching-to-place task. […] Spatial working memory was first assessed on an elevated T-maze. […]
# [3] = system: mice genetically altered to present symptoms of Alzheimer's disease (AD); test: Modified Morris water maze test in AD mice; assay type: in vivo; details: AD mice aged 13 months, compared with aricept
# Protocol: Another group, the control group, of 10 mice that were genetically altered to present symptoms of AD were fed a Control Diet, a diet of normal solid food and water, for 30 days.
# The pool used was a pool of water in a circular metal tank (150 cm in diameter and 50 cm in depth) having a water height of 30 cm and a water temperature that was maintained at ˜22° C. The pool was placed in a moderately lit area and surrounded by a black curtain. An acrylic platform (15 cm in diameter) was placed 2 cm below the surface of the water in the middle of one quadrant of the pool, equidistant from the center and the edge of the pool. Outside the pool, a cue was placed so as to be visible to a mouse in the maze, allowing a mouse to use it as a landmark for spatial orientation. The cue remained unchanged throughout the test period.
# On the first day of the training and testing period, the water in the pool was transparent, such that the platform was visible. Each mouse was trained to swim towards the platform and to stand on the platform so as not to be submerged in the pool. […] The amount of time the mouse took to find the platform, referred to as “escape latency,” was recorded for each trial.
# On the second day of the training and testing period, a small quantity of milk was added to the water in the pool, such that the pool was opaque and the platform was no longer visible. […]
# rats [4] = details: 2% in food for 8 days, cited from earlier work
structure (smiles),measurement,setting,value
"[Cl-].[Cl-].[Mg+2] [MgCl2, magnesium chloride]","novel object exploration preference, 10 minute retention interval","rats [1]; aging rats 12-14 months, 6 mg/kg MgCl2 from 8 months of age, single training",preferentially explored the novel object to the same extent as young rats
same,"novel versus familiar object discrimination, 24 hours retention","rats [1]; aging rats, 6 mg/kg MgCl2, single training",lose there ability to distinguish novel versus familiar objects
same,"preference for the novel object, 24-hour retention after spaced training","rats [1]; aging rats, two training sessions separated by 10 minutes",retained a high level of preference
same,asymptotic choice accuracy level,"rats [2]; after 8 days of training, 15 s delay",~94%
same,spatial working memory at increased delay,"rats [2]; aging rats, MgCl2 diet, 2 and 5 min delays",significantly enhanced the performance of the aging rats at 2 and 5 min delays
same,learning in non-matching-to-place task,"rats [2]; aging rats, MgCl2 diet, 15 sec delay",performed significantly better from their first trials
CC12CC3CC(C)(C1)CC(N)(C3)C2 [memantine],"reduction of the effects of AD on learning capacity, comparison of anti-AD drugs",[3],better at reducing the effects of AD on learning capacity than aricept
[O]=[Mg] [magnesium oxide],side-effect,rats [4],diarrhea and weight loss
same,cognitive function,rats [4]; young (9-month) and aged (25-month) rats,some sign of improvement of cognitive function
